This note sets out measurements from article PMC10478803, “Contributions of the N-terminal flanking residues of an antigenic peptide from the Japanese cedar pollen allergen Cry j 1 to the T-cell activation by HLA-DP5” (International Immunology, 2023).

The test system of assay [1] is CD4^+ T-cell clones (SU3–2, SU3–3, NM-4, and NM-7). Description: ^3H-thymidine incorporation assay of T-cell clone proliferation. The assay is classed as cell-based, human. As to conditions: HLA-DP5-positive allogenic irradiated PBMCs as APCs. The protocol: (§1) Cloning of CD4^+ T cells was performed as described previously ([23]). A single, viable (7AAD^–), CD4^+, CFSE^dim cell was sorted into each well of a 96-well plate, which contained 100 μl of culture medium with feeder cells and cytokines, as described below. Irradiated (30 Gy) peptide-pulsed PBMCs (1.0 × 10^5) isolated from unrelated DPB1*05:01^+ donors were used as feeder cells in the cloning plates. Pooled human serum (5%) and IL-2 (100 U ml^−1) (Peprotech) were added at the indicated final concentrations to AIM-V medium (Life Technologies). Cells were fed every 7 days with fresh cytokine and peptide-pulsed PBMCs. Growing clones were identified by visual inspection, expanded into […] plates, and then tested for antigen specificity by ^3H-thymidine incorporation and cytokine production assays, using HLA-DP5 transfected K562 cells as antigen-presenting cells (APCs). […]
T-cell clones were tested for antigen specificity, using the ^3H-thymidine incorporation assay. […] The cells were then harvested and the incorporated radioactivity was measured by β-scintillation counting. […]
(§2) Fig. 4. […] HLA-restriction of T-cell clones was determined by addingvarious monoclonal antibodies (mAbs): anti-HLA-DR mAb (L243, BioLegend), anti-HLA-DQ mAb (SPV-L3, Abcam) or anti-HLA-DP mAb (B7/21, Abcam), at a final concentration of 10 μg ml^−1. […]
(Uptake of a labelled nucleoside into DNA is a usual measure of proliferation.)

In assay [2] the test system is TCR(SU3–2)-TG40, TCR(SU3–3)-TG40, TCR(NM-4)-TG40, and TCR(NM-7)-TG40 cells. Description: CD137^+ response of TCR-transfected TG40 cells. The assay is classed as cell-based, mouse. As to conditions: in the presence of HLA-DP5-expressing cells. How it is done:
as §1, with “(APCs). HLA-DP5-K562 cells were kindly provided by Dr H. Sugiyama, Osaka University. CD4^+ T-cell clones were stained with a PE-conjugated anti-human CD4 monoclonal antibody (mAb), and single cells were sorted into MicroAmp reaction tubes.” for “(APCs).”
as §2

For the sequence DKSMKVTVAFNQF [NF-pCj1], the “proliferative response of T-cell clones (in words)” value in assay [1] is “proliferated in response to NF-pCj1”. Further, the “response of TCR-transfected TG40 cells by CD137^+ cell number (in words)” value in assay [2] was “responded to NF-pCj1”.
